Laboratory results: ChEMBL document CHEMBL1149523, “Inhibition of HIV-1 integrase activity by synthetic peptides derived from the HIV-1 HXB2 Pol region of the viral genome” (Bioorg Med Chem Lett, 2006)

Experiments:
[1] = target: T1, Human immunodeficiency virus type 1 integrase (Human immunodeficiency virus 1, UniProt Q7ZJM1); assay: Inhibition of wild type HIV1 integrase 3' processing step
[2] = target: Human immunodeficiency virus type 1 integrase (Human immunodeficiency virus 1, UniProt Q7ZJM1, C280S/F185K); assay: Inhibition of soluble HIV1 integrase F185K/C280S mutant strand transfer step
[3] = target: T2, Human immunodeficiency virus type 1 integrase (Human immunodeficiency virus 1, UniProt Q7ZJM1, C130A); assay: Inhibition of mutant HIV1 integrase C130A mutant 3' processing step
[4] = target: T3, Human immunodeficiency virus type 1 integrase (Human immunodeficiency virus 1, UniProt Q7ZJM1, C130S); assay: Inhibition of HIV1 integrase C130S mutant 3' processing step
[5] = target: Human immunodeficiency virus type 1 integrase (Human immunodeficiency virus 1, UniProt Q7ZJM1, C280S/F182K); assay: Inhibition of soluble HIV1 integrase F182K/ C280S mutant 3' processing step
[6] = target: T3, Human immunodeficiency virus type 1 integrase; assay: Inhibition of HIV1 integrase C130S mutant strand transfer step
[7] = target: T1, Human immunodeficiency virus type 1 integrase; assay: Inhibition of wild type HIV1 integrase strand transfer step
[8] = target: T2, Human immunodeficiency virus type 1 integrase; assay: Inhibition of HIV1 integrase C130A mutant strand transfer step

Chain of Human immunodeficiency virus type 1 integrase (Human immunodeficiency virus 1, UniProt Q7ZJM1, C280S/F185K) (Q7ZJM1 entry or part of it C280S/F185K): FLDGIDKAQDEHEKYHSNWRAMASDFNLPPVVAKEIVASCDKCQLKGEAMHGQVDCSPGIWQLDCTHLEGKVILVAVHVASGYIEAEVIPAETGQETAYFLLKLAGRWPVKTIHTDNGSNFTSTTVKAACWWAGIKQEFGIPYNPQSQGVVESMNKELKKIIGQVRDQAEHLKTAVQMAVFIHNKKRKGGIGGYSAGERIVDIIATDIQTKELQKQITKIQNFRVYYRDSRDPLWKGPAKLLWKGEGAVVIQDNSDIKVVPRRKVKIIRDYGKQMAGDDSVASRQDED
T1 sequence (Q7ZJM1 whole entry): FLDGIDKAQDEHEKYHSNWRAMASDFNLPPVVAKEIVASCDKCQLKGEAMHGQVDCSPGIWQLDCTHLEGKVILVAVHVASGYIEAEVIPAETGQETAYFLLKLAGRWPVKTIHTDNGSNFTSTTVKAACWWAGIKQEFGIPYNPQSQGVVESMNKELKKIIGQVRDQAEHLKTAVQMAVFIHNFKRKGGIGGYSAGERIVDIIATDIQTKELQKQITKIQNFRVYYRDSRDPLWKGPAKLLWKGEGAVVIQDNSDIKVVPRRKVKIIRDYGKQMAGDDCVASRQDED
T2 sequence (Q7ZJM1 entry or part of it C130A): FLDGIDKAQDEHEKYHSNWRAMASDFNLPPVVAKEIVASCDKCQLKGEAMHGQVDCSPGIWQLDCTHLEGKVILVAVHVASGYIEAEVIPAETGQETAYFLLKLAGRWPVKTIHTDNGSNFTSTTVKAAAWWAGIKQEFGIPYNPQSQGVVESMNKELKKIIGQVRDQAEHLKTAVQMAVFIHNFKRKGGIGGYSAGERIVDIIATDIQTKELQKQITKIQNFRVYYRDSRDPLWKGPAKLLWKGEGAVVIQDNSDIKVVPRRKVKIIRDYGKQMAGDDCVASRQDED
T3 sequence (Q7ZJM1 entry or part of it C130S): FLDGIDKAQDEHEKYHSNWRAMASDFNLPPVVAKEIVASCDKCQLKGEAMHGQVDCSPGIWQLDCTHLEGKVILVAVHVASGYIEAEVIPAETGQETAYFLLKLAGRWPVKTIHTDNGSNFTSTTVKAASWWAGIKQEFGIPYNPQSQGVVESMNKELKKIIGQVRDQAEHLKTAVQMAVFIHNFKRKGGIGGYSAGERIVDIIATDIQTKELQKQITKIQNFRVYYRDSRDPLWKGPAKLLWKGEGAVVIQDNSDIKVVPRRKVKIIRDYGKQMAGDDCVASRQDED

Structure (SMILES) | IC50 [1] [µM] | IC50 [2] [µM] | IC50 [3] [µM] | IC50 [4] [µM] | IC50 [5] [µM] | IC50 [6] [µM] | IC50 [7] [µM] | IC50 [8] [µM]
CC[C@H](C)[C@H](NC(=O)[C@H](CO)NC(=O)[C@H](CCC(=O)O)NC(=O)[C@@H](NC(=O)[C@@H](NC(=O)[C@@H](NC(=O)[C@H](CCCCN)NC(=O)[C@H](CCC(N)=O)NC(=O)[C@@H](NC(=O)[C@H](C)NC(=O)[C@H](CCC(=O)O)NC(=O)[C@@H](NC(=O)[C@H](CC(C)C)NC(=O)[C@H](CCC(N)=O)NC(=O)[C@@H](N)CCCCN)[C@@H](C)O)C(C)C)[C@@H](C)CC)[C@@H](C)O)[C@@H](C)O)C(=O)N[C@H](C(=O)N[C@H](C(=O)N[C@@H](Cc1c[nH]c2ccccc12)C(=O)NCC(=O)N[C@@H](CCCCN)C(=O)O)[C@@H](C)CC)C(C)C | 7 | 31 | 15 | 29 | 51 | 2 | 4 | 10
CC[C@H](C)[C@H](NC(=O)[C@H](CC(C)C)NC(=O)[C@H](CCC(N)=O)NC(=O)[C@H](CCC(=O)O)NC(=O)[C@@H](NC(=O)[C@@H](NC(=O)[C@H](CCC(N)=O)NC(=O)[C@H](CC(N)=O)NC(=O)[C@@H](NC(=O)[C@H](CC(C)C)NC(=O)[C@@H](N)CCC(=O)O)C(C)C)[C@@H](C)CC)[C@@H](C)CC)C(=O)N[C@@H](CCCCN)C(=O)N[C@@H](CCCCN)C(=O)N[C@@H](CCC(=O)O)C(=O)N[C@@H](CCCCN)C(=O)N[C@H](C(=O)N[C@@H](Cc1ccc(O)cc1)C(=O)N[C@@H](CC(C)C)C(=O)N[C@@H](C)C(=O)N[C@@H](Cc1c[nH]c2ccccc12)C(=O)O)C(C)C | 15 | 83 | 45 | 136 | 113 | 7 | 14 | 15
CC[C@H](C)[C@H](NC(=O)[C@H](Cc1c[nH]c2ccccc12)NC(=O)[C@@H](NC(=O)[C@H](C)NC(=O)[C@H](CCC(N)=O)NC(=O)[C@H](Cc1c[nH]c2ccccc12)NC(=O)[C@H](Cc1ccc(O)cc1)NC(=O)[C@H](CCC(=O)O)NC(=O)[C@@H](NC(=O)[C@H](Cc1c[nH]c2ccccc12)NC(=O)[C@H](Cc1c[nH]c2ccccc12)NC(=O)[C@@H](NC(=O)[C@H](CCC(=O)O)NC(=O)[C@H](Cc1c[nH]c2ccccc12)NC(=O)[C@@H](NC(=O)[C@@H](N)CCC(=O)O)[C@@H](C)O)[C@@H](C)O)[C@@H](C)O)[C@@H](C)O)C(=O)N1CCC[C@H]1C(=O)N[C@@H](CCC(=O)O)C(=O)N[C@@H](Cc1c[nH]c2ccccc12)C(=O)N[C@@H](CCC(=O)O)C(=O)O | 6 | 9 | 25 | 126 | 13 | 27 | 2 | 5
CC[C@H](C)C(NC(=O)[C@H](CCC(=O)O)NC(=O)[C@H](CC(C)C)NC(=O)[C@H](CC(=O)O)NC(=O)[C@H](CO)NC(=O)CNC(=O)[C@@H](NC(=O)[C@H](Cc1ccc(O)cc1)NC(=O)[C@H](CC(C)C)NC(=O)[C@H](CC(=O)O)NC(=O)[C@H](CC(=O)O)NC(=O)[C@H](CCSC)NC(=O)[C@H](Cc1ccc(O)cc1)NC(=O)[C@H](CCC(N)=O)NC(=O)[C@H](Cc1ccc(O)cc1)NC(=O)[C@@H](NC(=O)[C@@H](NC(=O)[C@@H](NC(=O)[C@H](CC(=O)O)NC(=O)[C@@H]1CCCN1)[C@@H](C)CC)C(C)C)[C@@H](C)CC)C(C)C)C(=O)O (stereo not given in full) | 6 | 23 | 20 | 41 | 28 | 2 | 10 | 5
CC[C@H](C)[C@H](NC(=O)CNC(=O)[C@H](CC(C)C)NC(=O)[C@H](C)NC(=O)[C@H](Cc1ccc(O)cc1)NC(=O)[C@H](CCC(N)=O)NC(=O)[C@H](CO)NC(=O)[C@H](CC(=O)O)NC(=O)[C@@H](NC(=O)[C@@H](NC(=O)[C@@H](NC(=O)[C@H](CC(N)=O)NC(=O)[C@@H](NC(=O)[C@H](CCC(=O)O)NC(=O)[C@H](CC(C)C)NC(=O)CNC(=O)[C@H](CO)NC(=O)[C@H](CC(=O)O)NC(=O)[C@H](CCC(N)=O)NC(=O)[C@@H](N)CC(C)C)C(C)C)[C@@H](C)CC)C(C)C)[C@@H](C)O)C(=O)O | 11 | 36 | > 167 | 18 | > 167 | 4 | 2 | 20
